# Laboratory results from patent publication US9725434B2, “Hydroxy-substituted orexin receptor antagonists” (MERCK SHARP & DOHME CORP., priority 2013, dated 2017).
# pIC50: −log10 of the molar value.
# Legend:
# [1] = biological target: human orexin-2 receptor (hOX2R) (Homo sapiens (Human), UniProt O43614); experiment: FLIPR Ca2+ Flux Assay, hOX2R; format: cell-based; details: CHO cells expressing hOX2R; agonist 70 pM Ala-6,12 orexin-A
# Description: In a typical experiment the OX1 and OX2 receptor antagonistic activity of the compounds of the present invention was determined in accordance with the following experimental method. For intracellular calcium measurements, Chinese hamster ovary (CHO) cells expressing the rat orexin-1 receptor or the human orexin-2 receptor, are grown in Iscove's modified DMEM containing 2 mM L-glutamine, […], 1% hypoxanthine-thymidine supplement, 100 U/ml penicillin, 100 μg/ml streptomycin and 10% heat-inactivated fetal calf serum (FCS). The cells are seeded at 20,000 cells/well into Becton-Dickinson black 384-well clear bottom sterile plates coated with poly-D-lysine. All reagents were from GIBCO-Invitrogen Corp. The seeded plates are incubated overnight at 37° C. and 5% CO2. Ala-6,12 human orexin-A as the agonist is prepared as a 1 mM stock solution in 1% bovine serum albumin (BSA) and diluted in assay buffer (HBSS containing 20 mM HEPES, 0.1% BSA and 2.5 mM probenecid, pH7.4) for use in the assay at a final concentration of 70 pM. Test compounds are prepared as 10 mM stock solution in DMSO, then diluted in 384-well plates, first in DMSO, then assay buffer. On the day of the assay, cells are washed 3 times with 100 μl assay buffer and then incubated for 60 min (37° C., 5% CO2) in 60 μl assay buffer containing 1 μM Fluo-4AM ester, 0.02% pluronic acid, and 1% BSA. The dye loading solution is then aspirated and cells are washed 3 times with 100 μl assay buffer. 30 μl of that same buffer is left in each well. Within the Fluorescent Imaging Plate Reader (FLIPR, Molecular Devices), test compounds are added to the plate in a volume of 25 μl, incubated for 5 min and finally 25 μl of agonist is added. Fluorescence is measured for each well at 1 second intervals for 5 minutes and the height of each fluorescence peak is compared to the height of the fluorescence peak induced by 70 pM Ala-6,12 orexin-A with buffer in place of antagonist. […] Alternatively, compound potency can be assessed by a radioligand binding assay (described in Bergman et. al. Bioorg. Med. Chem. Lett. 2008, 18, 1425-1430) in which the inhibition constant (Ki) is determined in membranes prepared from CHO cells expressing either the OX1 or OX2 receptor. The intrinsic orexin receptor antagonist activity of a compound which may be used in the present invention may be determined by these assays.
# (§1) Chinese hamster ovary (CHO) cells expressing the human orexin-1 receptor (hOX1R) or the human orexin-2 receptor (hOX2R) were grown in Iscove's modified DMEM containing 2 mM L-glutamine, […], 1% hypoxanthine-thymidine supplement, 100 U/ml penicillin, 100 μg/ml streptomycin and 10% heat-inactivated fetal calf serum (FCS). The cells were seeded at 20,000 cells/well into Becton-Dickinson black 384-well clear bottom sterile plates coated with poly-D-lysine. All reagents were from GIBCO-Invitrogen Corp. The seeded plates were incubated overnight at 37° C. and 5% CO2. Ala-6,12 human orexin-A, used as the agonist, was prepared as a 1 mM stock solution in 1% bovine serum albumin (BSA) and diluted in assay buffer (HBSS containing 20 mM HEPES, 0.1% BSA and 2.5 mM probenecid, pH7.4) for use in the assay at a final concentration of 70 pM. Test compounds were prepared as 10 mM stock solution in DMSO, then diluted in 384-well plates, first in DMSO, then assay buffer.
# On the day of the assay, cells were washed 3× with 100 μl assay buffer and then incubated for 60 minutes (37° C., 5% CO2) in 60 μl assay buffer containing 1 μM Fluo-4AM ester, 0.02% pluronic acid, and 1% BSA. The dye loading solution was then aspirated and cells were washed 3× with 100 μl assay buffer.
# [2] = biological target: human orexin-1 receptor (hOX1R) (Homo sapiens, UniProt O43613); experiment: FLIPR Ca2+ Flux Assay, hOX1R; format: cell-based; details: CHO cells expressing hOX1R; agonist 70 pM Ala-6,12 orexin-A
# Description: as §1
# On the day of the assay, cells were washed 3× with 100 μl assay buffer and then incubated for 60 minutes (37° C., 5% CO2) in 60 μl assay buffer containing 1 μM Fluo-4AM ester, 0.02% pluronic acid, and 1% BSA. The dye loading solution was then aspirated and cells were washed 3× with 100 μl assay buffer. 30 μl of that same buffer was left in each well. Within the Fluorescent Imaging Plate Reader (FLIPR, Molecular Devices), test compounds were added to the plate in a volume of 25 μl, incubated for 5 minutes, and then 25 μl of agonist was added. Fluorescence was measured for each well at 1 second intervals for 5 minutes, and the height of each fluorescence peak was compared to the height of the fluorescence peak induced by 70 pM of Ala-6,12 orexin-A with buffer in place of test compound.
# Sequence of human orexin-2 receptor (hOX2R) (O43614 whole entry): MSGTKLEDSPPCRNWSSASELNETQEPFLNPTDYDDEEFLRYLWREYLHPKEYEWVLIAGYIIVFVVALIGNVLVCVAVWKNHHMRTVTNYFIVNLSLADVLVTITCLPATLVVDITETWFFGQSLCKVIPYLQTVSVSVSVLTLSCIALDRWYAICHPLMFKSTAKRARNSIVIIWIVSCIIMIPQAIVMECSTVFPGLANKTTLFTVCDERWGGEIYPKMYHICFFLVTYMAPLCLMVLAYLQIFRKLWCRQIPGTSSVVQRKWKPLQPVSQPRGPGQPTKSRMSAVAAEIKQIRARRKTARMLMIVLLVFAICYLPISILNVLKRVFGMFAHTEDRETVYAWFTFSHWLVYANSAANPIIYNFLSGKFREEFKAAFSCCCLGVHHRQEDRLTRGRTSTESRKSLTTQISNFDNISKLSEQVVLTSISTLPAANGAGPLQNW
Molecule,pIC50 [1],pIC50 [2]
"C[C@@H]1CC[C@@H](Oc2cccc3c2CCC[C@@]3(C)O)CN1C(=O)c1ccccc1-n1nccn1 [Example 29, (1R)-1-Methyl-5-{[(3R,6R)-6-methyl-1-{[2-(2H-1,2,3-triazol-2-yl)phenyl]carbonyl}piperidin-3-yl]oxy}-1,2,3,4-tetrahydronaphthalen-1-ol]",6.91,5.00
"(1S)-6-{[(3R,6R)-6-Methyl-1-{[2-(2H-1,2,3-triazol-2-yl)phenyl]carbonyl}piperidin-3-yl]oxy}-2,3-dihydro-1H-inden-1-ol [Example 28]",,5.00
"C[C@@H]1CC[C@@H](Oc2cc(C(C)(C)O)ccn2)CN1C(=O)c1ccccc1-n1nccn1 [Example 4, 2-(2-{[(3R,6R)-6-Methyl-1-{[2-(2H-1,2,3-triazol-2-yl)phenyl]carbonyl}piperidin-3-yl]oxy}pyridin-4-yl)propan-2-ol]",7.70,6.00
"C[C@@H]1CC[C@@H](Oc2ccc3c(c2)C(O)CC3)CN1C(=O)c1ccccc1-n1nccn1 (stereo partly drawn) [Example 24, 6-{[(3R,6R)-6-Methyl-1-{[2-(2H-1,2,3-triazol-2-yl)phenyl]carbonyl}piperidin-3-yl]oxy}-2,3-dihydro-1H-inden-1-ol]",,5.68
"CCC(C)(O)c1ccnc(O[C@@H]2CC[C@@H](C)N(C(=O)c3ccccc3-n3nccn3)C2)c1 (stereo partly drawn) [Example 9, 2-(2-{[(3R,6R)-6-Methyl-1-{[2-(2H-1,2,3-triazol-2-yl)phenyl]carbonyl}piperidin-3-yl]oxy}pyridin-4-yl)butan-2-ol]",7.85,6.36
"C[C@@H]1CC[C@@H](Oc2cccc(C(C)(O)C3CCCC3)c2)CN1C(=O)c1ccccc1-n1nccn1 (stereo partly drawn) [Example 16, 1-Cyclopentyl-1-(3-{[(3R,6R)-6-methyl-1-{[2-(2H-1,2,3-triazol-2-yl)phenyl]carbonyl}-piperidin-3-yl]oxy}phenyl)ethanol]",7.07,5.47
"C[C@@H]1CC[C@@H](Oc2cc([C@](C)(O)C3CC3)ccn2)CN1C(=O)c1ccccc1-n1nccn1 [Example 11, (1R)-1-cyclopropyl-1-(2-{[(3R,6R)-6-methyl-1-{[2-(2H-1,2,3-triazol-2-yl)phenyl]carbonyl}piperidin-3-yl]oxy}pyridin-4-yl)ethanol]",7.85,6.53
"C[C@@H]1CC[C@@H](Oc2cccc(C(C)(O)C3CC3)c2)CN1C(=O)c1ccccc1-n1nccn1 (stereo partly drawn) [Example 15, 1-Cyclopropyl-1-(3-{[(3R,6R)-6-methyl-1-{[2-(2H-1,2,3-triazol-2-yl)phenyl]carbonyl}-piperidin-3-yl]oxy}phenyl)ethanol]",7.44,5.68
"C[C@@H]1CC[C@@H](Oc2nccc(C(C)(C)O)c2F)CN1C(=O)c1ccccc1-n1nccn1 [Example 21, 2-(3-Fluoro-2-{[(3R,6R)-6-methyl-1-{[2-(2H-1,2,3-triazol-2-yl)phenyl]carbonyl}piperidin-3-yl]oxy}pyridin-4-yl)propan-2-ol]",8.22,6.59
"CC(O)c1cccc(O[C@@H]2CC[C@@H](C)N(C(=O)c3ccccc3-n3nccn3)C2)c1 (stereo partly drawn) [Example 1, 1-(3-{[(3R,6R)-6-Methyl-1-{[2-(2H-1,2,3-triazol-2-yl)phenyl]carbonyl}piperidin-3-yl]oxy}phenyl)ethanol]",7.01,5.35
"C[C@@H]1CC[C@@H](Oc2cccc(C(C)(C)O)c2)CN1C(=O)c1ccccc1-n1nccn1 [Example 6, 2-(3-{[(3R,6R)-6-Methyl-1-{[2-(2H-1,2,3-triazol-2-yl)phenyl]carbonyl}piperidin-3-yl]oxy}phenyl)propan-2-ol]",7.49,5.00
"C[C@@H]1CC[C@@H](Oc2cccc3c2CC[C@@H]3O)CN1C(=O)c1ccccc1-n1nccn1 [Example 26, (1S)-4-{[(3R,6R)-6-Methyl-1-{[2-(2H-1,2,3-triazol-2-yl)phenyl]carbonyl}piperidin-3-yl]oxy}-2,3-dihydro-1H-inden-1-ol]",7.60,5.82
"CC(O)c1cccc(O[C@@H]2CC[C@@H](C)N(C(=O)c3ccccc3-c3ncccn3)C2)c1 (stereo partly drawn) [Example 3, 1-[3-({(3R,6R)-6-Methyl-1-[(2-pyrimidin-2-ylphenyl)carbonyl]piperidin-3-yl}oxy)phenyl]ethanol]",6.92,5.37
"(1R)-1-Methyl-6-{[(3R,6R)-6-methyl-1-{[2-(2H-1,2,3-triazol-2-yl)phenyl]carbonyl}piperidin-3-yl]oxy}-2,3-dihydro-1H-inden-1-ol [Example 34]",6.95,5.93
"C[C@@H]1CC[C@@H](Oc2ccc3c(c2)C(C)(O)CC3)CN1C(=O)c1ccccc1-n1nccn1 (stereo partly drawn) [Example 33, 1-Methyl-6-{[(3R,6R)-6-methyl-1-{[2-(2H-1,2,3-triazol-2-yl)phenyl]carbonyl}piperidin-3-yl]oxy}-2,3-dihydro-1H-inden-1-ol]",7.64,6.13
"C[C@@H]1CC[C@@H](Oc2cc(C(C)(C)O)ccc2F)CN1C(=O)c1ccccc1-n1nccn1 [Example 20, 2-(4-Fluoro-3-{[(3R,6R)-6-methyl-1-{[2-(2H-1,2,3-triazol-2-yl)phenyl]carbonyl}piperidin-3-yl]oxy}phenyl)propan-2-ol]",6.45,5.00
"C[C@@H]1CC[C@@H](Oc2cccc(C(C)(O)C(F)(F)F)c2)CN1C(=O)c1ccccc1-n1nccn1 (stereo partly drawn) [Example 5, 1,1,1-Trifluoro-2-(3-{[(3R,6R)-6-methyl-1-{[2-(2H-1,2,3-triazol-2-yl)phenyl]carbonyl}piperidin-3-yl]oxy}phenyl)propan-2-ol]",7.05,5.26
"C[C@@H]1CC[C@@H](Oc2cccc3c2CCC[C@]3(C)O)CN1C(=O)c1ccccc1-n1nccn1 [Example 30, (1S)-1-methyl-5-{[(3R,6R)-6-methyl-1-{[2-(2H-1,2,3-triazol-2-yl)phenyl]carbonyl}piperidin-3-yl]oxy}-1,2,3,4-tetrahydronaphthalen-1-ol]",7.70,6.54
"(1R)-6-{[(3R,6R)-6-Methyl-1-{[2-(2H-1,2,3-triazol-2-yl)phenyl]carbonyl}piperidin-3-yl]oxy}-2,3-dihydro-1H-inden-1-ol [Example 27]",,5.87
"CCC(C)(O)c1cccc(O[C@@H]2CC[C@@H](C)N(C(=O)c3ccccc3-n3nccn3)C2)c1 (stereo partly drawn) [Example 18, 2-(3-{[(3R,6R)-6-Methyl-1-{[2-(2H-1,2,3-triazol-2-yl)phenyl]carbonyl}piperidin-3-yl]oxy}phenyl)butan-2-ol]",7.62,6.08
"(1S)-1-Methyl-6-{[(3R,6R)-6-methyl-1-{[2-(2H-1,2,3-triazol-2-yl)phenyl]carbonyl}piperidin-3-yl]oxy}-2,3-dihydro-1H-inden-1-ol [Example 35]",6.79,5.47
